# Laboratory results taken from patent publication US12319695B2, “Sulfonamide derivative with fused pyrimidine skeleton, having epidermal growth factor receptor mutation inhibitory effect” (HANMI PHARM. CO., LTD., priority 2018, dated 2025).
# Entries after “also recorded” stand apart in the source; their conditions may differ.
# System: Ba/F3 EGFR del19/T790M/C797S cells
# Experiment: Ba/F3 EGFR del19/T790M/C797S cell growth inhibition test (CellTiter-Glo, 72 hours);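 also: compounds tested in tenfold steps from 10 µM down to 0.1 nM, with luminescence read on a microplate reader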
# Assay type: cell-based
# Conditions: not given
row,Compound,proliferation inhibitory effect in Ba/F3 cell line (in words)
1,"C=CC(=O)Nc1cc(Nc2nccc(-c3cn(C)c4ccccc34)n2)c(OC)cc1N(C)CCN(C)C [Osimertinib, reference compound]",did not show proliferation inhibitory activity; also recorded: extremely insignificant inhibitory effect

# Same assay, conditions: Ba/F3 EGFR-Del19/T790M/C797S, 72 h, read-out: Ba/F3 EGFR del19/T790M/C797S cells, GI50
row,Compound,GI50 [nM]
1,"C=CC(=O)Nc1cc(Nc2nccc(-c3cn(C)c4ccccc34)n2)c(OC)cc1N(C)CCN(C)C [Osimertinib, reference compound]",> 1000

# Same assay, conditions: Ba/F3 cell line overexpressing EGFR del19/T790M/C797S, 72 hours, CellTiter-Glo; read-out: Ba/F3 EGFR del19/T790M/C797S cells, GI50
row,Compound,GI50 [nM]
1,"CN1C[C@@H]2CN(c3ccc(Nc4nc(Nc5ccccc5N(C)S(C)(=O)=O)c5cc[nH]c5n4)cc3F)C[C@@H]2C1 [Example 41, N-(2-((2-((3-fluoro-4-((3aR,6aS)-5-methylhexahydropyrrolo[3,4-c]pyrrole-2(1H)-yl)phenyl)amino)-7H-pyrrolo[2,3-d]pyrimidine-4-yl)amino)phenyl)-N-methylmethanesulfonamide]",141
2,"CC(C)N(c1ccccc1Nc1nc(Nc2ccc(N3CCN(C)CC3)c(F)c2)nc2[nH]ccc12)S(C)(=O)=O [Example 44, N-(2-((2-((3-fluoro-4-(4-methylpiperazin-1-yl)phenyl)amino)-7H-pyrrolo[2,3-d]pyrimidine-4-yl)amino)phenyl)-N-isopropylmethanesulfonamide]",72
3,"CN1CCN(c2ccc(Nc3nc(Nc4ccccc4N(C4CC4)S(C)(=O)=O)c4cc[nH]c4n3)cc2F)CC1 [Example 45, N-cyclopropyl-N-(2-((2-((3-fluoro-4-(4-methylpiperazin-1-yl)phenyl)amino)-7H-pyrrolo[2,3-d]pyrimidine-4-yl)amino)phenyl)methanesulfonamide]",64
4,"CN1CCN(c2ccc(Nc3nc(Nc4ccccc4N(C)S(=O)(=O)C4CC4)c4cc[nH]c4n3)cc2F)CC1 [Example 48, N-(2-((2-((3-fluoro-4-(4-methylpiperazin-1-yl)phenyl)amino)-7H-pyrrolo[2,3-d]pyrimidine-4-yl)amino)phenyl)-N-methylcyclopropanesulfonamide]",30
5,"CCN1CCN(c2ccc(Nc3nc(Nc4ccccc4N(CC)S(C)(=O)=O)c4cc[nH]c4n3)cc2F)CC1 [Example 50, N-ethyl-N-(2-((2-((4-(4-ethylpiperazin-1-yl)-3-fluorophenyl)amino)-7H-pyrrolo[2,3-d]pyrimidine-4-yl)amino)phenyl)methanesulfonamide]",26
6,"CCN1CCN(c2ccc(Nc3nc(Nc4ccccc4N(C)S(=O)(=O)CC)c4cc[nH]c4n3)cc2F)CC1 [Example 51, N-(2-((2-((4-(4-ethylpiperazin-1-yl)-3-fluorophenyl)amino)-7H-pyrrolo[2,3-d]pyrimidine-4-yl)amino)phenyl)-N-methylethanesulfonamide]",25
7,CCN1CCN(c2ccc(Nc3nc(Nc4ccccc4N(CC)S(=O)(=O)CC)c4cc[nH]c4n3)cc2F)CC1 [Example 52],119
8,"CN1CCN(c2ccc(Nc3nc(Nc4ccccc4N(C)S(C)(=O)=O)c4c(Cl)c[nH]c4n3)c(F)c2F)CC1 [Example 58, N-(2-((5-chloro-2-((2,3-difluoro-4-(4-methylpiperazin-1-yl)phenyl)amino)-7H-pyrrolo[2,3-d]pyrimidine-4-yl)amino)phenyl)-N-methylmethanesulfonamide]",93
9,"CN1CCN(c2ccc(Nc3nc(Nc4ccccc4N(C)S(C)(=O)=O)c4c(Cl)c[nH]c4n3)cn2)CC1 [Example 59, N-(2-((5-chloro-2-((6-(4-methylpiperazin-1-yl)pyridin-3-yl)amino)-7H-pyrrolo[2,3-d]pyrimidine-4-yl)amino)phenyl)-N-methylmethanesulfonamide]",41
10,"CN1CCN(C2CCN(c3ccc(Nc4nc(Nc5ccccc5N(C)S(C)(=O)=O)c5c(F)c[nH]c5n4)cc3F)CC2)CC1 [Example 64, N-(2-((5-fluoro-2-((3-fluoro-4-(4-(4-methylpiperazin-1-yl)piperidin-1-yl)phenyl)amino)-7H-pyrrolo[2,3-d]pyrimidine-4-yl)amino)phenyl)-N-methylmethanesulfonamide]",28

# The remaining lines, values ahead:
row,GI50 [nM],Compound
1,37,"CCN(c1ccccc1Nc1nc(Nc2ccc(N3CCN(C)CC3)c(F)c2)nc2[nH]ccc12)S(C)(=O)=O [Example 43, N-ethyl-N-(2-((2-((3-fluoro-4-(4-methylpiperazin-1-yl)phenyl)amino)-7H-pyrrolo[2,3-d]pyrimidine-4-yl)amino)phenyl)methanesulfonamide]"
2,16,"CCS(=O)(=O)N(C)c1ccccc1Nc1nc(Nc2ccc(N3CCN(C)CC3)c(F)c2)nc2[nH]ccc12 [Example 46, N-(2-((2-((3-fluoro-4-(4-methylpiperazin-1-yl)phenyl)amino)-7H-pyrrolo[2,3-d]pyrimidine-4-yl)amino)phenyl)-N-methylethanesulfonamide]"
3,49,"CC(C)S(=O)(=O)N(C)c1ccccc1Nc1nc(Nc2ccc(N3CCN(C)CC3)c(F)c2)nc2[nH]ccc12 [Example 47, N-(2-((2-((3-fluoro-4-(4-methylpiperazin-1-yl)phenyl)amino)-7H-pyrrolo[2,3-d]pyrimidine-4-yl)amino)phenyl)-N-methylpropan-2-sulfonamide]"
4,7.9,"CN1CCN(c2ccc(Nc3nc(Nc4ccccc4N(C)S(C)(=O)=O)c4c(Cl)c[nH]c4n3)cc2F)CC1 [Example 57, N-(2-((5-chloro-2-((3-fluoro-4-(4-methylpiperazin-1-yl)phenyl)amino)-7H-pyrrolo[2,3-d]pyrimidine-4-yl)amino)phenyl)-N-methylmethanesulfonamide]"
5,15,"Cc1c[nH]c2nc(Nc3ccc(N4CCN(C)CC4)c(F)c3)nc(Nc3ccccc3N(C)S(C)(=O)=O)c12 [Example 60, N-(2-((2-((3-fluoro-4-(4-methylpiperazin-1-yl)phenyl)amino)-5-methyl-7H-pyrrolo[2,3-d]pyrimidine-4-yl)amino)phenyl)-N-methylmethanesulfonamide]"
6,46,"CN1CCN(c2ccc(Nc3nc(Nc4ccccc4N(C)S(C)(=O)=O)c4c(C#N)c[nH]c4n3)cc2F)CC1 [Example 61, N-(2-((5-cyano-2-((3-fluoro-4-(4-methylpiperazin-1-yl)phenyl)amino)-7H-pyrrolo[2,3-d]pyrimidine-4-yl)amino)phenyl)-N-methylmethanesulfonamide]"
7,46,"CN1CCN(c2ccc(Nc3nc(Nc4ccccc4N(C)S(C)(=O)=O)c4c(F)c[nH]c4n3)cc2F)CC1 [Example 62, N-(2-((5-fluoro-2-((3-fluoro-4-(4-methylpiperazin-1-yl)phenyl)amino)-7H-pyrrolo[2,3-d]pyrimidine-4-yl)amino)phenyl)-N-methylmethanesulfonamide]"
8,64,"CCN1CCN(c2ccc(Nc3nc(Nc4ccccc4N(C)S(C)(=O)=O)c4c(F)c[nH]c4n3)cc2F)CC1 [Example 63, N-(2-((2-((4-(4-ethylpiperazin-1-yl)-3-fluorophenyl)amino)-5-fluoro-7H-pyrrolo[2,3-d]pyrimidine-4-yl)amino)phenyl)-N-methylmethanesulfonamide]"
9,63,"CN1CCN(c2ccc(Nc3nc(Nc4ccccc4N(C)S(C)(=O)=O)c4nc[nH]c4n3)cc2F)CC1 [Example 66, N-(2-((2-((3-fluoro-4-(4-methylpiperazin-1-yl)phenyl)amino)-9H-purine-6-yl)amino)phenyl)-N-methylmethanesulfonamide]"
10,254,"CN1CCN(c2ccc(Nc3nc(Nc4ccccc4N(C)S(C)(=O)=O)c4cn[nH]c4n3)cc2F)CC1 [Example 67, N-(2-((6-((3-fluoro-4-(4-methylpiperazin-1-yl)phenyl)amino)-1H-pyrazolo[3,4-d]pyrimidine-4-yl)amino)phenyl)-N-methylmethanesulfonamide]"

# Same assay, conditions: read-out: Ba/F3 EGFR del19/T790M/C797S cells, GI50
row,Compound,GI50 [nM]
1,"C=CC(=O)Nc1cc(Nc2nccc(-c3cn(C)c4ccccc34)n2)c(OC)cc1N(C)CCN(C)C [Osimertinib, reference compound]",1120

# System: PC9 EGFR del19/T790M/C797S cells
# Experiment: PC9 EGFR del19/T790M/C797S cell growth inhibition test (CellTiter-Glo, 72 hours)
# Assay type: cell-based
# Conditions: Homo sapiens, PC-9, PC9 cell line overexpressing EGFR del19/T790M/C797S
# Protocol: For cell growth conditions, an RPMI Medium 1640 (1×) containing 10% FBS and 1% penicillin/straptomycin (Gibco BRL) was used.
# Specifically, the cell line stored in a liquid nitrogen tank was taken out, rapidly dissolved at 37° C., and thereafter centrifuged to remove the cryopreservation medium. The recovered cell pellets were well mixed in a culture medium, put into a culture flask, and passaged under conditions of 37° C. and 5% carbon dioxide to stabilize the cells to logarithmic cell growth phase. Thereafter, cells were taken from the flask, centrifuged to remove the culture medium, washed with Dulbecco's phosphate buffered saline (DPBS), and then centrifuged again to remove DPBS, and then diluted with a culture medium to have 1×10^5 cells/ml. The diluted cells were dispensed into a 96-well plate at 100 μl per well. The compounds prepared in the above examples were each dissolved in 99.5% dimethylsulfoxide (hereinafter, DMSO, cell culture grade) to a concentration of 10 mM. The DMSO solution containing each compound was diluted with a culture medium to a concentration of 30 μM, and then tenfold serial dilution was used to prepare a solution diluted upto 0.3 nM (in order to reach a final DMSO concentration of 1% or less).
# The cells treated with the test solution were cultured under conditions of 37° C. and 5% carbon dioxide for 72 hours. After the 96-well plate in which the cells were cultured was acclimated to room temperature for 30 minutes, CellTiter-Glo® Luminescent Cell Assay Reagent (CTG, Promega) was dispensed at 50 μl per well. After stabilizing luminescence signals for 10 minutes, the luminescence intensity was measured with a microplate reader.
# Based on the measured value, a […] value of each compound, which is the concentration at which cell growth is inhibited by 50%, was calculated with respect to 100% of the value obtained by subtracting the initial cell density value of a well not treated with a test material from the final cell density value thereof. The GI50 value of each compound was calculated using nonlinear regression of GraphPad Prism; log[inhibitor] vs. normalized response analysis.
row,GI50 [nM],Compound
1,420,"CC(C)N1CCN(c2ccc(Nc3nc(Nc4ccccc4N(C)S(C)(=O)=O)c4cc[nH]c4n3)cc2F)CC1 [Example 9, N-(2-((2-((3-fluoro-4-(4-isopropylpiperazin-1-yl)phenyl)amino)-7H-pyrrolo[2,3-d]pyrimidine-4-yl)amino)phenyl)-N-methylmethanesulfonamide]"
2,538,"CCCN1CCN(c2ccc(Nc3nc(Nc4ccccc4N(C)S(C)(=O)=O)c4cc[nH]c4n3)cc2F)CC1 [Example 10, N-(2-((2-((3-fluoro-4-(4-propylpiperazin-1-yl)phenyl)amino)-7H-pyrrolo[2,3-d]pyrimidine-4-yl)amino)phenyl)-N-methylmethanesulfonamide]"
3,641,"CN(c1ccccc1Nc1nc(Nc2ccc(N3CCN(C4CC4)CC3)c(F)c2)nc2[nH]ccc12)S(C)(=O)=O [Example 11, N-(2-((2-((3-fluoro-4-(4-cyclopropylpiperazin-1-yl)phenyl)amino)-7H-pyrrolo[2,3-d]pyrimidine-4-yl)amino)phenyl)-N-methylmethanesulfonamide]"
